# In patent US10105437B2, “Epitopes related to coeliac disease” (BTG International Limited, priority 2004, dated 2018):
# System: PBMC from HLA-DQ2+ coeliac subjects
# Assay: Interferon gamma ELISPOT, second round wheat gliadin and glutenin 16mer library
# Type: cell-based, human
# Settings: 16mers pre-treated with transglutaminase, 18 or 28 subjects; for subjects with >70% of maximal peptide-specific response: normalized to individual's maximal response
# Text: 12mer peptides were then identified in which each potential deamidation site could be in position 4, 6 or 7 in the 9mer located within HLA-DQ2 binding groove (HLA-DQ2 anchors at these positions show a preference for glutamate). Candidate 12mer core epitope sequences were then flanked with glycine followed by the N-terminal residue present in the parent gliadin polypeptide and at the C-terminal by the C-terminal residue present in the parent gliadin polypeptide followed by glycine (i.e. GXXXXXXXQXXXXXXG (SEQ ID NO: 1936)). […]
# IFNγ ELISpot assays (Mabtech, Sweden) were performed in 96-well plates (MAIP S-45, Millipore) in which each well contained 25 mcl of peptide solution and 100 mcl of PBMC (2-8×10^5/well) in RPMI containing 10% heat inactivated human AB serum. After development and drying, IFNγ ELISpot plates were assessed using the MAIP automated ELISpot plate counter. Data was then analysed according to a novel algorithm (Expectation Maximization: EM) to define and quantify interferon-gamma responses to 9mer sequences contained within the peptide library (see FIG. 3 and below). 9mer peptides were then rationalised according to an algorithm that assumes redundancy in T-cell recognition, the “IterativeCluster” algorithm (see FIG. 4 and below), by allowing groups of amino acids with similar chemical properties at any one position in the 9mer, or for glutamate to replace glutamine at any position (assuming deamidation may have occurred).
# All 2nd round 16mer peptides were assessed in at least 18 subjects. […] All 16mers identified for the second round Oxford library also fulfilled the selection criteria for the Melbourne second round library.
# The second round peptide library data was analysed according to the “dominance” of peptide responses in the interferon gamma ELISPOT in individual subjects i.e. the percent response of an individual's PBMC to a specific peptide normalized against that individual's maximal peptide-induced response. Sequences of peptides that stimulated at least 40% of the maximal peptide-specific response in at least one subject are shown in Table 1 below. The dataset supports the consistency and “dominance” of peptides conforming to the sequences identified using the first round 20mer peptide library using the Expectation Maximization (EM) algorithm described above.
Substance,subjects with 10-40% of maximal peptide-specific response,subjects with 40-70% of maximal peptide-specific response,subjects with <10% of maximal peptide-specific response,subjects with >70% of maximal peptide-specific response
"LQTLPSMCNVYIPPYC [wheat 16mer, second round library]",Nil,Nil,17/18,Nil
"G-LQPFPQPQLPYLQP-G: wheat 16mer, second round library (GLQPFPQPQLPYLQPG; Description of Artificial Sequence: Synthetic gluten peptide)",12/28,1/28,14/28,1/28
"G-QQPQQQPQQPFPQQ-G: wheat 16mer, second round library",5/28,1/28,22/28,Nil
"VPLYRTTTSVPFGVGT [wheat 16mer, second round library]",Nil,Nil,17/18,Nil
"G-QQPFPQPQQPIPVQ-G: wheat 16mer, second round library",7/28,5/28,8/28,8/28
"G-QPFPLQPQQPFPQQ-G: wheat 16mer, second round library (GQPFPWQPQQPFPQQG; Description of Artificial Sequence: Synthetic gluten peptide)",7/28,2/28,19/28,Nil
"GQVVNNHGQTVFNDIG [wheat 16mer, second round library]",4/18,1/18,–,Nil
"QQGYYPTSPQQSGQGQ (QGQQGYYPTSPQQPPQ; Description of Artificial Sequence: Synthetic gluten peptide) [wheat 16mer, second round library]",Nil,1/18,17/18,Nil
"GQGQSGYYPTSPQQSG (QQGYYPTSPQQSGQGQ; Description of Artificial Sequence: Synthetic gluten peptide) [wheat 16mer, second round library]",2/18,Nil,15/18,1/18
"G-FPQLQQPQQPFPQQ-G: wheat 16mer, second round library (GFPQTQQPQQPFPQQG; Description of Artificial Sequence: Synthetic gluten peptide)",1/28,Nil,26/28,1/28
"G-MQVDPSGQVQWPQQ-G: wheat 16mer, second round library (GIQVDPSGQVQWPQQG; Description of Artificial Sequence: Synthetic gluten peptide)",Nil,Nil,17/18,1/18
"DAIRAIIYSIVLQEQQ [wheat 16mer, second round library]",Nil,Nil,17/18,Nil
"G-FPQPQQPQQPFPQQ-G: wheat 16mer, second round library (GFPQPQQPQQSFPQQG; Description of Artificial Sequence: Synthetic gluten peptide)",3/28,1/28,25/28,Nil
"G-QVSFQQPQQQYPSP-G: wheat 16mer, second round library",4/28,2/28,22/28,Nil
"LEAVTSIALRTLPTMC [wheat 16mer, second round library]",1/18,1/18,–,Nil
"G-QQQFSQPQQQFPQP-G: wheat 16mer, second round library",7/28,5/28,16/28,Nil
"PGQGQSGYYPTSPQQS [wheat 16mer, second round library]",Nil,1/18,16/18,1/18
"LQQQCSPVAMPQRLAR [wheat 16mer, second round library]",11/28,1/28,15/28,1/28
"QGQQGYYPISPQQSGQ [wheat 16mer, second round library]",1/18,1/18,15/18,1/18
"QGQPGYYPTSPQQIGQ [wheat 16mer, second round library]",1/18,1/18,15/18,1/18
"IIMQQEQQEQRQGVQI [wheat 16mer, second round library]",8/28,Nil,19/28,1/28
"QGQQGYYPTSPQQPPQ [wheat 16mer, second round library]",Nil,1/18,Nil,Nil
"G-LQPFPQPQLSYSQP-G: wheat 16mer, second round library (GLQPFPQPQLSYSQPG; Description of Artificial Sequence: Synthetic gluten peptide)",2/28,1/28,25/28,Nil
"QQGYYPISPQQLGQGQ [wheat 16mer, second round library]",Nil,1/18,Nil,Nil
"G-QQPFPQPQQPFSQQ-G: wheat 16mer, second round library",8/28,7/28,9/28,4/28
"G-QLPYPQPQLPYPQP-G: wheat 16mer, second round library (GQLPYPQPQLPYPQPG; Description of Artificial Sequence: Synthetic gluten peptide)",3/28,4/28,3/28,18/28
"G-LQPFPQPQLPYSQP-G: wheat 16mer, second round library (GLQPFPQPQLPYSQPG; Description of Artificial Sequence: Synthetic gluten peptide)",12/28,3/28,11/28,2/28
